Columns and labels:
Assay type in all cases: cell-based
human TLR9 = human TLR9 (Homo sapiens (Human), UniProt Q9NR96); experiment: TLR9 inhibition reporter assay (HEK-Blue, SEAP); conditions: HEK-Blue cells overexpressing human TLR9, ODN2006 5 nM stimulation
Procedure, shortened: (§1)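 Reporter cells, NF-κB/AP-1-driven SEAP; cmpd 0.05 nM–50 μM final, 30 min RT pre-treat; stim gardiquimod 7.5 μM (TLR7), R848 15.9 μM (TLR8), ODN2006 5 nM (TLR9); 22 h 37 °C; % inhibition of SEAP signal.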

human TLR7 = human TLR7 (Homo sapiens (Human), UniProt Q9NYK1); experiment: TLR7 inhibition reporter assay (HEK-Blue, SEAP); conditions: HEK-Blue cells overexpressing human TLR7, gardiquimod 7.5 μM stimulation
Sequence of human TLR7 (Q9NYK1 27-1049): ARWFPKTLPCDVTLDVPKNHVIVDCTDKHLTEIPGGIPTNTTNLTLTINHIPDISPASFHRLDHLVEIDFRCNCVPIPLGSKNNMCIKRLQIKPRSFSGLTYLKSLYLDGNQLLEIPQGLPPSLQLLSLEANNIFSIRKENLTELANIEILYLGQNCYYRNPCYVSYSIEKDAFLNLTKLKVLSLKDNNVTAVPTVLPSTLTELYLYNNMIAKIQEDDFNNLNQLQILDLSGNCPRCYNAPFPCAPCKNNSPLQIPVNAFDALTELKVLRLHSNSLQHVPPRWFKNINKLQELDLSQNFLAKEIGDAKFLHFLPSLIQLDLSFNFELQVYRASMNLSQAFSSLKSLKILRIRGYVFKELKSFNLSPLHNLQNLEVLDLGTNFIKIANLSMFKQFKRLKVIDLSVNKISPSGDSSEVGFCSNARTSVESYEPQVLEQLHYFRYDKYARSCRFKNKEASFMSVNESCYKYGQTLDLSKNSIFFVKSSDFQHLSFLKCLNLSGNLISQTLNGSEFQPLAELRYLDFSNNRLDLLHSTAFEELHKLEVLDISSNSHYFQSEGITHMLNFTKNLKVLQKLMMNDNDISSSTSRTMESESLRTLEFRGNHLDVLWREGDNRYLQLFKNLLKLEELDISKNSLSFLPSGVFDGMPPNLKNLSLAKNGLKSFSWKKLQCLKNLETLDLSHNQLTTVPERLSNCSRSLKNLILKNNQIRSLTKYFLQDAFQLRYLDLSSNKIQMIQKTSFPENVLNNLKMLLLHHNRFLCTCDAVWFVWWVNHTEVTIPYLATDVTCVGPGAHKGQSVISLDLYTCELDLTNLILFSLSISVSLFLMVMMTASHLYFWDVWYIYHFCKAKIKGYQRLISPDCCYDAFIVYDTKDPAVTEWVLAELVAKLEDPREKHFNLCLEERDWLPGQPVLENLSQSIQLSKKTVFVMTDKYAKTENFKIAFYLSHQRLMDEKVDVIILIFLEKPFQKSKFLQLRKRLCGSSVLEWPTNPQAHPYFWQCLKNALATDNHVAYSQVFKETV
Procedure, shortened: as §1

human TLR8 = human TLR8 (Homo sapiens (Human), UniProt Q9NR97); experiment: TLR8 inhibition reporter assay (HEK-Blue, SEAP); conditions: HEK-Blue cells overexpressing human TLR8, R848 15.9 μM stimulation
Sequence of human TLR8 (Q9NR97 27-1041): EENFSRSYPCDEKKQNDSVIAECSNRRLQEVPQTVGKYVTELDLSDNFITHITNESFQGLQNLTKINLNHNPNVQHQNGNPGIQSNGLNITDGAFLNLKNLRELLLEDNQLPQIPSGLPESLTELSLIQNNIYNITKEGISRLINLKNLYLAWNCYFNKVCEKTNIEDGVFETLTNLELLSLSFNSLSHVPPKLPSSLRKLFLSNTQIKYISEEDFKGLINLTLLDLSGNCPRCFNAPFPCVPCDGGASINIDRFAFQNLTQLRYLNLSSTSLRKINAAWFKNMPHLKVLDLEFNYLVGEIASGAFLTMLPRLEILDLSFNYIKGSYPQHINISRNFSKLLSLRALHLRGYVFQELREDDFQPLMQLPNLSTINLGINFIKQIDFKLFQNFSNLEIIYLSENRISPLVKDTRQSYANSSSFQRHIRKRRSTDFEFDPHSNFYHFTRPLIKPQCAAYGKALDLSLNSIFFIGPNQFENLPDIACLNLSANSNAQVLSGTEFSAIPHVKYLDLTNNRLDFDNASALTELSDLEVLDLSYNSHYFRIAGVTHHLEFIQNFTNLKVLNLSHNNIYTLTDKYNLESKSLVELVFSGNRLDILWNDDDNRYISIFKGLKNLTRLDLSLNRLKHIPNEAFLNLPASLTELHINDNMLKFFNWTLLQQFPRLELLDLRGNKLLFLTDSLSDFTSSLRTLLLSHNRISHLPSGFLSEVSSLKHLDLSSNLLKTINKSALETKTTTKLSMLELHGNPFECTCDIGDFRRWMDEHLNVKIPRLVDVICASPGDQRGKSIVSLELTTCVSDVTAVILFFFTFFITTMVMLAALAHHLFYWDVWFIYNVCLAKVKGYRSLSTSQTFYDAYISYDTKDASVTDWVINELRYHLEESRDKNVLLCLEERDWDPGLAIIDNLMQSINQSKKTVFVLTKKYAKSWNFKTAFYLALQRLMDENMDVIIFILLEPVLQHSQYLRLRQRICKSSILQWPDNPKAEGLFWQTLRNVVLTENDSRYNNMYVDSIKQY
Procedure, shortened: as §1

Sequence of human TLR9 (Q9NR96 26-1032): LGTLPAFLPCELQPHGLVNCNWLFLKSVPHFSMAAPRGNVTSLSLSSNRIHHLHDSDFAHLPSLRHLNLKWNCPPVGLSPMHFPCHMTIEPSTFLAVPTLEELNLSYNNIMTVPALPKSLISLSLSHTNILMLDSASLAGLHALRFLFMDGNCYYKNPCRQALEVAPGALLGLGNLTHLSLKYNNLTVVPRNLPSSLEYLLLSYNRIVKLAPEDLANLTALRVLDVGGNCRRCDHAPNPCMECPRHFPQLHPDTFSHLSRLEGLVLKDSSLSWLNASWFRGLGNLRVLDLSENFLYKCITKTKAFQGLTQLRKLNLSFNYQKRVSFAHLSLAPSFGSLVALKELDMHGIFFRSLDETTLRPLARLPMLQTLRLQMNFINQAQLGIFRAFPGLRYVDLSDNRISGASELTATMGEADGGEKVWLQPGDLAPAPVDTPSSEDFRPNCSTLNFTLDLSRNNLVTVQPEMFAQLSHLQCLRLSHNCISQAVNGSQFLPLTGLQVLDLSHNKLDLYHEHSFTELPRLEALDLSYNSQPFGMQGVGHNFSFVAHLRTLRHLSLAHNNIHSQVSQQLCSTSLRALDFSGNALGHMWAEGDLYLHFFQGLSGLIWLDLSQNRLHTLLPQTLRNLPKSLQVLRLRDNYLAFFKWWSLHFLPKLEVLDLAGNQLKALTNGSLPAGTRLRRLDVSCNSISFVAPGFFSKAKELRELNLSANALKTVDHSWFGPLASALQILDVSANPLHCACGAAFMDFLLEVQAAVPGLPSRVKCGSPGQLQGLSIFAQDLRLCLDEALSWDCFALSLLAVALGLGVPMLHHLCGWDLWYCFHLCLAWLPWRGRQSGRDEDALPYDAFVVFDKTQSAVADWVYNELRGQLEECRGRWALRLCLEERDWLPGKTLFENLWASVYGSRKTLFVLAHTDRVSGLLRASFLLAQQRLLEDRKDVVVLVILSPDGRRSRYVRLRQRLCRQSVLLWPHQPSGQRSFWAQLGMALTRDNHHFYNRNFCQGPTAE

| Structure (SMILES) | IC50 (human TLR9) [nM] | IC50 (human TLR7) [nM] | IC50 (human TLR8) [nM] |
| --- | --- | --- | --- |
| Cc1cc(-c2[nH]c3ccc(-c4nnc(Cc5c[nH]cn5)o4)cc3c2C(C)C)ccn1 [Example 144, 2-((1H-imidazol-4-yl)methyl)-5-(3-isopropyl-2-(2-methylpyridin-4-yl)-1H-indol-5-yl)-1,3,4-oxadiazole] | > 50000 | 258 | 17 |
| CC(C)c1c(-c2ccnc3[nH]ncc23)[nH]c2ccc(-c3nnc(CNC4CC4)o3)cc12 [Example 148, N-((5-(3-isopropyl-2-(1H-pyrazolo[3,4-b]pyridin-4-yl)-1H-indol-5-yl)-1,3,4-oxadiazol-2-yl)methyl)cyclopropanamine] | > 50000 | 945 | 37 |
| CC(C)c1c(-c2ccnc3[nH]ncc23)[nH]c2ccc(-c3nnc(CNCC(C)(C)C)o3)cc12 [Example 149, N-((5-(3-isopropyl-2-(1H-pyrazolo[3,4-b]pyridin-4-yl)-1H-indol-5-yl)-1,3,4-oxadiazol-2-yl)methyl)-2,2-dimethylpropan-1-amine] | > 50000 | 7280 | 50 |
| CC(C)c1c(-c2ccnc3[nH]ncc23)[nH]c2ccc(-c3nnc(CNCC#N)o3)cc12 [Example 150, 2-(((5-(3-isopropyl-2-(1H-pyrazolo[3,4-b]pyridin-4-yl)-1H-indol-5-yl)-1,3,4-oxadiazol-2-yl)methyl)amino)acetonitrile] | > 50000 | 2240 | 378 |
| CC(C)c1c(-c2ccnc3[nH]ncc23)[nH]c2ccc(-c3nnc(CNC45CC6CC(CC(C6)C4)C5)o3)cc12 [Example 151, N-((5-(3-isopropyl-2-(1H-pyrazolo[3,4-b]pyridin-4-yl)-1H-indol-5-yl)-1,3,4-oxadiazol-2-yl)methyl)adamantan-1-amine] | > 50000 | 5340 | 18 |
| CC(C)c1c(-c2ccnc3[nH]ncc23)[nH]c2ccc(-c3nnc(CN4CCOCC4)o3)cc12 [Example 152, 4-((5-(3-isopropyl-2-(1H-pyrazolo[3,4-b]pyridin-4-yl)-1H-indol-5-yl)-1,3,4-oxadiazol-2-yl)methyl)morpholine] | > 50000 | 2330 | 471 |
| CC(=O)N1CCN(Cc2nnc(-c3ccc4[nH]c(-c5ccnc6[nH]ncc56)c(C(C)C)c4c3)o2)CC1 [Example 153, 1-(4-((5-(3-isopropyl-2-(1H-pyrazolo[3,4-b]pyridin-4-yl)-1H-indol-5-yl)-1,3,4-oxadiazol-2-yl)methyl)piperazin-1-yl)ethan-1-one] | > 50000 | 1570 | 138 |
| CC(C)c1c(-c2ccnc3[nH]ncc23)[nH]c2ccc(-c3nnc(CN(C)C(C)C)o3)cc12 [Example 154, N-((5-(3-isopropyl-2-(1H-pyrazolo[3,4-b]pyridin-4-yl)-1H-indol-5-yl)-1,3,4-oxadiazol-2-yl)methyl)-N-methylpropan-2-amine] | > 50000 | 1410 | 31 |
| CC(=O)N1CCCN(Cc2nnc(-c3ccc4[nH]c(-c5ccnc6[nH]ncc56)c(C(C)C)c4c3)o2)CC1 [Example 155, 1-(4-((5-(3-isopropyl-2-(1H-pyrazolo[3,4-b]pyridin-4-yl)-1H-indol-5-yl)-1,3,4-oxadiazol-2-yl)methyl)-1,4-diazepan-1-yl)ethan-1-one] | > 50000 | 1420 | 127 |
| CC(C)c1c(-c2ccnc3[nH]ncc23)[nH]c2ccc(-c3nnc(CN4CCNC(=O)C4)o3)cc12 [Example 156, 4-((5-(3-isopropyl-2-(1H-pyrazolo[3,4-b]pyridin-4-yl)-1H-indol-5-yl)-1,3,4-oxadiazol-2-yl)methyl)piperazin-2-one] | > 50000 | 1410 | 212 |
| CC(C)c1c(-c2ccnc3[nH]ncc23)[nH]c2ccc(-c3nnc(CN4CC[C@@H](N(C)C)C4)o3)cc12 [Example 157, (R)-1-((5-(3-isopropyl-2-(1H-pyrazolo[3,4-b]pyridin-4-yl)-1H-indol-5-yl)-1,3,4-oxadiazol-2-yl)methyl)-N,N-dimethylpyrrolidin-3-amine] | 4480 | 314 | 18 |
| CC(C)c1c(-c2ccnc3[nH]ncc23)[nH]c2ccc(-c3nnc(CN4CCC[C@H]4C(N)=O)o3)cc12 [Example 158, (S)-1-((5-(3-isopropyl-2-(1H-pyrazolo[3,4-b]pyridin-4-yl)-1H-indol-5-yl)-1,3,4-oxadiazol-2-yl)methyl)pyrrolidine-2-carboxamide] | > 50000 | 1380 | 174 |
| COc1ccc(-c2[nH]c3ccc(-c4ccc5c(c4)NCCC5)cc3c2C(C)C)cc1OC [Example 161, 7-(2-(3,4-dimethoxyphenyl)-3-isopropyl-1H-indol-5-yl)-1,2,3,4-tetrahydroquinoline] | 5000 | 2930 | 1980 |
| Cc1cc(-c2[nH]c3ccc(-c4nnc(C5CCCNC5)[nH]4)cc3c2C(C)C)ccn1 (stereo not drawn) [Example 164, 3-isopropyl-2-(2-methylpyridin-4-yl)-5-(5-(piperidin-3-yl)-4H-1,2,4-triazol-3-yl)-1H-indole] | 10400 | 45 | 27 |
| COc1ccc(-c2[nH]c3ccc(-c4ncc[nH]4)cc3c2C(C)C)cc1OC [Example 165, 2-(3,4-dimethoxyphenyl)-5-(1H-imidazol-2-yl)-3-isopropyl-1H-indole] | 6690 | 93 | 7.3 |
| CC(C)c1c(-c2ccnc(N)c2)[nH]c2ccc(-c3nnc(C(=O)N(C)C)o3)cc12 [Example 166, 5-(2-(2-aminopyridin-4-yl)-3-isopropyl-H-indol-5-yl)-N,N-dimethyl-1,3,4-oxadiazole-2-carboxamide] | 29500 | 284 | 47 |

The next compounds have a lower IC50 (human TLR9) than those just listed; values first:

| IC50 (human TLR9) [nM] | IC50 (human TLR7) [nM] | IC50 (human TLR8) [nM] | Structure (SMILES) |
| --- | --- | --- | --- |
| 633 | 34 | 1 | Cc1cc(-c2[nH]c3ccc(-c4nnc(C[C@H]5CCCN5)o4)cc3c2C(C)C)ccn1 [Example 145, (R)-2-(3-isopropyl-2-(2-methylpyridin-4-yl)-1H-indol-5-yl)-5-(pyrrolidin-2-ylmethyl)-1,3,4-oxadiazole] |
| 651 | 15 | 3 | Cc1cc(-c2[nH]c3ccc(-c4nnc([C@H]5CCNC5)o4)cc3c2C(C)C)ccn1 [Example 146, (S)-2-(3-isopropyl-2-(2-methylpyridin-4-yl)-1H-indol-5-yl)-5-(pyrrolidin-3-yl)-1,3,4-oxadiazole] |
| 2250 | 192 | 20 | COc1ccc(-c2[nH]c3ccc(-c4nc(C(=O)NC5CCN(C(C)C)CC5)cs4)cc3c2C(C)C)cc1OC [Example 147, 2-(2-(3,4-dimethoxyphenyl)-3-isopropyl-1H-indol-5-yl)-N-(1-isopropylpiperidin-4-yl)thiazole-4-carboxamide] |
| 1230 | 24 | 1.8 | Cc1cc(-c2[nH]c3ccc(-c4nnc(C5CCCN(C)C5)o4)cc3c2C(C)C)ccn1 (stereo not drawn) [Example 159, 2-(3-isopropyl-2-(2-methylpyridin-4-yl)-1H-indol-5-yl)-5-(1-methylpiperidin-3-yl)-1,3,4-oxadiazole] |
| 3930 | 120 | 23 | CC(C)c1c(-c2ccnc(N)c2)[nH]c2ccc(-c3nc(C(=O)NC4CCN(C(C)C)CC4)co3)cc12 [Example 160, 2-(2-(2-aminopyridin-4-yl)-3-isopropyl-1H-indol-5-yl)-N-(1-isopropylpiperidin-4-yl)oxazole-4-carboxamide] |
| 1380 | 52 | 1.7 | CC(C)c1c(-c2ccnc3[nH]ncc23)[nH]c2ccc(-c3nnc(C4CCCN(C)C4)o3)cc12 (stereo not drawn) [Example 162, 2-(3-isopropyl-2-(1H-pyrazolo[3,4-b]pyridin-4-yl)-1H-indol-5-yl)-5-(1-methylpiperidin-3-yl)-1,3,4-oxadiazole] |
| 690 | 33 | 8.6 | Cc1cc(-c2[nH]c3ccc(-c4nnc(C5CCN(Cc6ccccc6)CC5)[nH]4)cc3c2C(C)C)ccn1 [Example 163, 5-(5-(1-benzylpiperidin-4-yl)-4H-1,2,4-triazol-3-yl)-3-isopropyl-2-(2-methylpyridin-4-yl)-1H-indole] |
| 653 | 66 | 3.2 | CC(C)c1c(-c2ccnc3[nH]ncc23)[nH]c2ccc(-c3nnc(C4CCCN(C)C4)o3)cc12 (stereo not drawn) [Example 167, 2-(3-isopropyl-2-(1H-pyrazolo[3,4-b]pyridin-4-yl)-1H-indol-5-yl)-5-(1-methylpiperidin-3-yl)-1,3,4-oxadiazole] |
| 1080 | 81 | 1.9 | CC(C)c1c(-c2ccnc3[nH]ncc23)[nH]c2ccc(-c3nnc(C4CCCN(C)C4)o3)cc12 (stereo not drawn) [Example 168, 2-(3-isopropyl-2-(1H-pyrazolo[3,4-b]pyridin-4-yl)-1H-indol-5-yl)-5-(1-methylpiperidin-3-yl)-1,3,4-oxadiazole] |
| 564 | 27 | 1.8 | Cc1cc(-c2[nH]c3ccc(-c4nnc(C5CCCN(C)C5)o4)cc3c2C(C)C)ccn1 (stereo not drawn) [Example 169, 2-(3-isopropyl-2-(2-methylpyridin-4-yl)-1H-indol-5-yl)-5-(1-methylpiperidin-3-yl)-1,3,4-oxadiazole] |
| 660 | 11 | 0.6 | Cc1cc(-c2[nH]c3ccc(-c4nnc(C5CCCN(C)C5)o4)cc3c2C(C)C)ccn1 (stereo not drawn) [Example 170, 2-(3-isopropyl-2-(2-methylpyridin-4-yl)-1H-indol-5-yl)-5-(1-methylpiperidin-3-yl)-1,3,4-oxadiazole] |

From patent US11420958B2, “Aryl and heteroaryl substituted indole compounds” (BRISTOL-MYERS SQUIBB COMPANY, priority 2017, dated 2022)
